The source of these data is patent US20250122242A1, “SELECTION SYSTEMS, PEPTIDES DETERMINED THEREWITH, AND METHODS OF USING SAME” (Wisconsin Alumni Research Foundation, priority 2023, published 2025).

One experiment addresses hIAPP-T7n (UniProt P00573+P10997). As to conditions: positive selection on hIAPP, high-throughput sequencing; for Rank (positive selection): top enriched sequences. An excerpt:
Next, we examined if our system could discover inhibitors of other disease-associated APPs. We targeted human islet amyloid polypeptide (hIAPP), which forms amyloid deposits in patients with type-2 diabetes that are hypothesized to contribute to […] dysfunction.^40 To create a selection for hIAPP aggregation inhibitors, we simply cloned hIAPP in place of Aβ42 in our selection circuit (FIG. 2B). We used an SP-encoded CZ6 SICLOPPS library (Z=NDT codon encoded amino acid: R, N, D, C, G, H, I, L, F, S, Y, or V) (˜3×10^6 total sequences). This codon set was chosen to reduce the theoretical library size and facilitate library cloning. The library (total of ˜5×10^6 transformants) was cloned on a SP obtained from an additional 250 hours of PACE using a more stringent selection (FIGS. 10A-10D).
We performed five rounds of selection, diluting the SP pool by ten-fold each round (FIG. 4A). […] To verify that we selected phage with higher activity, we measured the propagation of the SP from each round on hIAPP selection cells, normalizing input phage titers to […] to enable head-to-head comparison between phage pools.
(§1) Single colonies of host cells transformed with the appropriate selection plasmids were used to make overnight cultures in 2×YT with maintenance antibiotics. The overnight culture was diluted (1:100) into 4-5 mL DRM with maintenance antibiotics and incubated at 37° C. with shaking until the OD600 of the culture reached ˜0.5, upon which the expanded phage library was added at a titer of 1×10^6 pfu/mL. The culture was incubated at 37° C. with shaking overnight (13-18 h). The next day, the culture was centrifuged at 8,000 rcf for 2 min to obtain the supernatant containing phage. The collected phage was diluted into fresh host cell cultures (10 to 1,000-fold) for the next round of selection, while the rest was stored at 4° C. for downstream analysis. This process was repeated until a significant increase in phage propagation was observed compared with the parent library. Both positive and negative selection rounds were performed using this procedure.
(§2) Sample preparation. Phage stocks collected from the final rounds of library selection were first amplified using LY0145 and LY0146. The PCR product was purified, and adapters added using LY0147 and LY0148. The resulting PCR product was purified and barcoded through a final PCR using index primers to add unique indices for shared Illumina NovaSeq sequencing. The final PCR product was purified, and the concentration measured by Nanodrop. Further sample quality control was performed by the University of Wisconsin-Madison Biotechnology Center (UWBC).
(§3) High-throughput sequencing and data analysis. High-throughput sequencing was performed by UWBC using a shared sequencing service on the NovaSeq 6000 platform. Sequencing reads were demultiplexed by UWBC and analyzed using custom-written Python scripts.

The next experiment deals with Aβ42-T7n (UniProt P00573+P05067). Conditions: for Fold enrichment in negative vs. positive selection: percent reads negative vs. positive selection; for Percent total reads (negative selection) / Rank (negative selection): subsequent negative selection against Aβ42, high-throughput sequencing.
Source text: To create a negative selection, we placed gIII-neg, a dominant-negative form of gIII,^44 under PT7 in our selection circuit. Inhibition of a non-target APP (ex. Aβ42) triggers pIII-neg expression and poisons phage proliferation. A second plasmid produces small amounts of pIII from the phage shock promoter (FIG. 16A). All SPs infecting cells encoding this negative selection receive sufficient pIII to propagate. However, SP that carry a promiscuous or false positive cyclic peptide will also produce pIII-neg and generate non-infectious progeny (FIGS. 16B and 16C). We subjected the hIAPP round 5 phage population to four rounds of negative selection, diluting the phage by 100-fold each round (FIG. 5B).
as §1, §2, §3

Another experiment concerns the target T1, hIAPP (Homo sapiens, UniProt P10997).
T1 construct: A 1 mg portion of amylin trifluoroacetate salt (Bachem) was purchased as lyophilized solid in a vial; purchased Bachem
T1 sequence (P10997 34-70 limits assumed): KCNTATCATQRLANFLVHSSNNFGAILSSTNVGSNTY
As to the kind of experiment: ThT fluorescence assay of in vitro hIAPP aggregation. The class given is biochemical. Conditions: chemically synthesized peptide, 10 μM hIAPP, PBS pH 6.9, 32° C., quiescent. The procedure: Preparation of ThT stock solution. To prepare a stock solution of ThT (2-3 mM), 2-4 mg of ThT was added to 3 mL PBS (pH 6.9) in a 15 mL conical tube. The solution was sonicated for 5 min and the supernatant was filtered through a 0.22 μm syringe filter into a 1.5 mL Eppendorf tube. This was the ThT stock solution to be used in following experiments. 2 mL of a 1:200 diluted ThT solution was prepared by adding 10 μL ThT stock solution into 1990 μL PBS. The absorbance of the diluted ThT solution measured at 412 nm was used to calculate the ThT stock concentration using an extinction coefficient (c) of 31600 M^−1 cm^−1.
Preparation of hIAPP stocks. A 1 mg portion of amylin trifluoroacetate salt (Bachem) was purchased as lyophilized solid in a vial. The solid was dissolved in pre-chilled 2562 μL 35 mM sodium acetate (pH 5.3) to a stock concentration of 100 μM on ice. Aliquots of hIAPP were prepared by transferring 200 μL of the 100 μM hIAPP stock solution to low-protein-binding Eppendorf tubes on ice. The aliquots were then immediately snap frozen using liquid N2, lyophilized for 24 h, and stored at −80° C. until use.
Preparation of samples for ThT assays. Using cyclic peptide stock solution (100 μM) and PBS, 400 μL aqueous solution of cyclic peptide was prepared in a low-protein-binding Eppendorf tube to achieve the desired cyclic peptide:hIAPP molar ratio (80 μM for 4:1, 40 μM for 2:1, 20 μM for 1:1, 10 μM for 0.5:1, 0 μM for 0:1). 30 μL of the solution was then loaded to wells on a black clear-bottom low-binding 96-well plate (Corning 3881) to make a triplicate for each condition. This plate loaded with aqueous solutions of cyclic peptides was then ready for adding hIAPP.
Preparation and addition of hIAPP for ThT assays. Using ThT stock solution and PBS, 1 mL ThT solution (10 μM) was prepared in a low-protein-binding Eppendorf tube and chilled on ice. 0.5 mL of the pre-chilled ThT solution was added to one aliquot of lyophilized hIAPP, which was equilibrated to room temperature before opening the tube. Pipetting up and down four times was performed to facilitate complete dissolving of hIAPP. The 0.5 mL hIAPP-containing solution was immediately transferred to the remaining 0.5 mL ThT solution on ice. Pipetting up and down four times was performed to facilitate complete mixing. The resulting 1 mL hIAPP solution, where [hIAPP]=20 μM, was immediately transferred to a 25 mL liquid reservoir. Using a multi-channel pipette, 30 μL of the hIAPP solution was quickly loaded into wells containing aqueous solutions of cyclic peptides on the 96-well plate. Final [hIAPP]=10 μM, [ThT]=5 μM.
ThT assay conditions. The plate was then quickly covered and incubated in a Tecan M Plex microplate reader under quiescent condition at 32° C. for at least 12 h. ThT fluorescence at 480 nm was measured every 5 min through the bottom of the plate using an excitation wavelength of 440 nm.
Fitting of aggregation kinetics. ThT aggregation kinetics data was fit to a sigmoidal function using GraphPad Prism and the aggregation lag time (tlag) and the apparent fibril elongation rate (kapp) calculated as described.^55

Chain of Aβ42-T7n (P05067+P00573 fused): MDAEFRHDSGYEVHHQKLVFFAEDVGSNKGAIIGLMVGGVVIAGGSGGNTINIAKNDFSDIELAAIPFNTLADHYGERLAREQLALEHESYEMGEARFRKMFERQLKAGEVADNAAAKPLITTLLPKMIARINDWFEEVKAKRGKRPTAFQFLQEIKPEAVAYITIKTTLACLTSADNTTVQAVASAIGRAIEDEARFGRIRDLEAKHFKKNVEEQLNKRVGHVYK
Chain of hIAPP-T7n (P10997+P00573 fused): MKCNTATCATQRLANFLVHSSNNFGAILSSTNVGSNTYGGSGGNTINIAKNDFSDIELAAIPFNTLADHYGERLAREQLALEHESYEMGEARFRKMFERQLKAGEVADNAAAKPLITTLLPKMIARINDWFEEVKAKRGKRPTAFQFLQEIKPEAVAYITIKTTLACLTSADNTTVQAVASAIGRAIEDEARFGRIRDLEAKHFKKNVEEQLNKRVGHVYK

In the case of CIYFHHH, at hIAPP-T7n, the “Percent total reads (positive selection)” value turned out to be 0.12% and the “Rank (positive selection)” value turned out to be 9. Further, at Aβ42-T7n, the “Fold enrichment in negative vs. positive selection” value is recorded as 28.44, the “Percent total reads (negative selection)” value stood at 3.33% and the “Rank (negative selection)” value was found to be 8.
The matching figures for CCHSFFR: 0.29%, 6, 2.87, 0.83% and 12.
The matching figures for CHVHSYL: 1.82%, 2, 3.31, 6.03% and 4.
CLNYFHG: on hIAPP-T7n, the “Percent total reads (positive selection)” value is on record as 0.35% and the “Rank (positive selection)” value worked out at 3. Also, on Aβ42-T7n, the “Fold enrichment in negative vs. positive selection” value is given as 20.08, the “Percent total reads (negative selection)” value is given as 7.05% and the “Rank (negative selection)” value turned out to be 3.
Consider CISCHYG, for which, at hIAPP-T7n, the “Percent total reads (positive selection)” value was found to be 0.13% and the “Rank (positive selection)” value is 8. At Aβ42-T7n, the “Fold enrichment in negative vs. positive selection” value amounted to 0.92, the “Percent total reads (negative selection)” value is 0.12% and the “Rank (negative selection)” value was 34.
Consider CFFRGSD, for which, on hIAPP-T7n, the “Percent total reads (positive selection)” value is reported as 0.06% and the “Rank (positive selection)” value was determined as 18. Further, on Aβ42-T7n, the “Fold enrichment in negative vs. positive selection” value is recorded as 81.53, the “Percent total reads (negative selection)” value came to 4.73% and the “Rank (negative selection)” value was 6.
In the case of linear CHVVGVI [linear CHWGVI], the “inhibition of hIAPP aggregation (ThT fluorescence)” value (“inhibition of hIAPP aggregation” for short) with hIAPP was “greatly reduced ability to inhibit hIAPP”.
Take CCGLYNI: at hIAPP-T7n, the “Percent total reads (positive selection)” value is recorded as 0.31% and the “Rank (positive selection)” value came to 5. In addition, on Aβ42-T7n, the “Fold enrichment in negative vs. positive selection” value was 0.48, the “Percent total reads (negative selection)” value is 0.15% and the “Rank (negative selection)” value is 31.
The matching figures for CNRLDVS: 0.02%, 26, 83.68, 1.84% and 9.
For linear CRCVFSG [linear CRCVSFG], the “inhibition of hIAPP aggregation” value with hIAPP is reported as “moderately inhibited hNAPP aggregation”.
CVSYILL: at hIAPP-T7n, the “Percent total reads (positive selection)” value is 0.11% and the “Rank (positive selection)” value is 10. In addition, at Aβ42-T7n, the “Fold enrichment in negative vs. positive selection” value is on record as 4.21, the “Percent total reads (negative selection)” value is 0.45% and the “Rank (negative selection)” value is 16.
The matching figures for CFNLVVD: 0.08%, 15, 64.65, 4.85% and 5.
For the substance linear CDLGVFR, the “inhibition of hIAPP aggregation” value in the experiment with hIAPP was “completely inactive”.
CGIRSLG: on hIAPP-T7n, the “Percent total reads (positive selection)” value stood at 0.22% and the “Rank (positive selection)” value is on record as 7. Moreover, on Aβ42-T7n, the “Fold enrichment in negative vs. positive selection” value was found to be 20.09, the “Percent total reads (negative selection)” value came out at 4.48% and the “Rank (negative selection)” value is 7.
For CYILSIG, at hIAPP-T7n, the “Percent total reads (positive selection)” value was 0.34% and the “Rank (positive selection)” value came out at 4. Also, on Aβ42-T7n, the “Fold enrichment in negative vs. positive selection” value was found to be 1.10, the “Percent total reads (negative selection)” value is 0.37% and the “Rank (negative selection)” value was found to be 18.
In the case of CGLGHGN, at hIAPP-T7n, the “Percent total reads (positive selection)” value amounted to 0.009% and the “Rank (positive selection)” value was determined as 53. On Aβ42-T7n, the “Fold enrichment in negative vs. positive selection” value stood at 124.22, the “Percent total reads (negative selection)” value is listed as 1.12% and the “Rank (negative selection)” value is on record as 10.
